Measured values: paper PMC11477965, “Synthesis and Anti-Liver Fibrosis Research of Aspartic Acid Derivatives” (Molecules, 2024)
Entries after “also recorded” stand apart in the source; their conditions may differ. Read-outs that look alike come from different tables or passages of the source. Where a SMILES comes first, the peptide text is derived from it.

Experiments:
COL1A1 promoter = COL1A1 promoter luciferase reporter inhibition assay in LX-2 cells; assay type: cell-based, human; conditions: for inhibition at 500 µM: read-out: Inhibitory Rate (%) of COL1A1 promotor; for relative fluorescence unit (RFU) of COL1A1 promotor: mean ± SD, n = 3, Control 124874.7 ± 10750.9;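 on all read-outs here: Anti-fibrotic screen: luciferase reporter driven by the COL1A1 promoter in human hepatic stellate LX-2 cells, compounds applied in complete medium in 96-well plates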
Experimental: A total of 32 target compounds, the lead compound L-Asp, and the positive control epigallocatechin gallate (EGCG), known for its anti-hepatic fibrotic activity [29], were tested for inhibitory effects on COL1A1 promoter activity at a concentration of 0.5 mM.
The LX-2 cells at 90% confluent were transfected with the plasmid of pGL4.17-COL1A1 promoter using Lipofectamine 2000 (Invitrogen, 11668019, Carlsbad, CA, USA) with Opti-MEM serum-free medium (Gibco, 1930104). After culturing for 6 h, the cells were replaced with a complete medium and seeded in 96-well plates for 24 h. The compound to be tested was prepared using a complete medium and added to the 96-well plate. After 24 h, Bright-Glo Luciferase Assay System (Promega, Madison, WI, USA) was used to detect the activity of COL1A1 promoter and the assaying inhibition rate.

LX-2 cells [1] = assay: SRB cytotoxicity assay in LX-2 cells; assay type: cell-based, human; conditions: CC50 in LX-2 cells / IC50 on COL1A1 promoter
Experimental: (§1) Their cytotoxicity in LX-2 cells was assessed across various concentrations using the SRB assay, and the cytotoxic concentrations (CC50) were determined. The selectivity index (SI), calculated as the ratio of CC50 to the […] (IC50), was employed to evaluate the compounds’ effects on the COL1A1 promoter (Table 2).
(§2) The LX-2 cells were seeded in a 96-well plate when reaching 90% confluent. After 24 h, the compound to be tested was prepared using a complete medium and added to the 96-well plate for 24 h. After washing with PBS, the cells were fixed with 10% (wt/vol) trichloroacetic acid for 1 h, washed with deionized water and dried completely and, after staining with SRB for 20 min, the excess dye was washed with 1% acetic acid (vol/vol) three times. The dye bound to the protein was dissolved with 10 mM Tris base solution and OD values were determined at […].

[2] = SRB cytotoxicity assay in LX-2 cells; assay type: cell-based, human; conditions: human, LX-2 cells, SRB assay
Experimental: as §1, §2

[3] = system: IKKβ-NF-κB signaling pathway; assay: LPS-induced inflammation in LX-2 cells (western blot); assay type: cell-based, human; conditions: 24 h; for LPS-induced phosphorylation and baseline expression of IKKβ, NF-κB phosphorylation and expression: LPS 1 μg/mL, 50, 100, 200, and 500 μmol/L; for IL-6 expression / inhibition of inflammatory factors: LPS 1 μg/mL; for inhibition of inflammatory factors: 500 μM bands scanned
Experimental: Inflammation is crucial in the onset and progression of liver fibrosis, and fibrosis can further exacerbate tissue inflammation. […] To assess the anti-inflammatory effects of Compounds 41 and 8a, LX-2 cells were pre-incubated in serum-free medium for 24 h before LPS stimulation, followed by treatment with different concentrations of the compounds in serum-free medium containing 1 μg/mL LPS for another 24 h. Changes in inflammatory cytokine protein levels were analyzed using western blotting.
The IKKβ-NF-κB signaling pathway has been closely linked to the severity of liver fibrosis, with IKKβ serving as the primary catalytic subunit responsible for NF-κB activation. Therefore, this study investigated the NF-κB pathway by measuring IKKβ kinase activity. […] To evaluate the effects of the target compounds on LPS-induced inflammatory cytokines, four concentrations (50, 100, 200 and 500 μmol/L) were tested, and the results were analyzed by grayscale scanning of western blot bands using ImageJ software (version 1.53t), with normalization to GAPDH protein levels.
(§3) After the confluence of LX-2 cells reached 90%, the cells were treated with serum-free medium for 24 h. 2 ng/mL TGFβ1 or 1 μg/mL LPS were used in combination with compounds of different concentrations for 24 h. The samples of cells were lysed in RIPA buffer supplemented with protease inhibitor cocktail (Roche) and separated by SDS-PAGE. After the proteins were transferred to the PVDF membrane, 5% skim milk in TBS-T buffer was used to block them at room temperature for 2 h. Specific primary and secondary antibodies were used to detect the target protein. Finally, the blot was visualized using the Tanon 5200 system (Tanon, Shanghai, China) and the protein expression of GAPDH was used as the internal reference.

LX-2 cells [4] = assay: LPS-induced activation of LX-2 cells, fibro-genic proteins (western blot); assay type: cell-based, human; conditions: LPS 1 μg/mL, 50, 100, 200, and 500 μmol/L, 24 h
Experimental: Taking the results of Figure 3 and Figure 4 together, it seems that compounds 41 and 8a alleviate inflammation and inhibit liver fibrosis through the IKKβ-NF-κB signaling pathway, as indicated in Figure 5.
as §3

[5] = system: fibro-genic gene expression (fibronectin, COL1A1, TGFβ, α-SMA, CTGF, and TIMP1); assay: Western blot of fibro-genic proteins in TGFβ1-activated LX-2 cells; assay type: cell-based, human; conditions: TGFβ1 2 ng/mL, 24 h; for expression of fibro-genic genes (western blot): compound 100 μmol/L
Experimental: (§4) To evaluate the anti-fibrotic efficacy in vitro, we assessed the downregulatory effects of ten active compounds (3, 4c, 4d, 8a, 9, 28a, 32a, 41, 43 and 45) and L-Asp on fibro-genic gene expression (fibronectin, COL1A1, TGFβ, α-SMA, CTGF, and TIMP1) using western blot analysis. LX-2 cells were activated with TGFβ1 (2 ng/mL) and concurrently treated with each compound (100 μmol/L) for 24 h.
as §3

[6] = system: mRNA expression of COL1A1, TGFβ1, and MMP2; assay: RT-qPCR of fibro-genic mRNA in TGFβ1-activated LX-2 cells; assay type: cell-based, human; conditions: TGFβ1 2 ng/mL, 24 h
Experimental: as §4
The LX-2 cells were seeded in a 6-well plate and cultured in a complete medium at 37 °C in a 5% CO2 environment until reaching 90% confluence. After culture without serum medium for 24 h, the cells were treated with 2 ng/mL TGFβ1 or 1 μg/mL LPS and the right concentration of compounds for 24 h. Total RNA was extracted using TRIzol reagent and purified by NucleoSpin RNA Clean-up Kit (Macherey-Nagel, Munich, Germany). Total RNA was reverse-transcribed into […] using a Transcriptor First Strand cDNA Synthesis Kit (Roche, Basel, Switzerland). The relative expression levels of the target gene were determined using a TaqMan probe with an ABI Q3 quantitative real-time PCR system, while GAPDH was utilized as an internal control for mRNA expression. The fold change of target mRNA expression was calculated using Equation 2^−∆∆Ct.

[7] = Homo sapiens, LX-2, LX-2 cells, read-out: IC50 to inhibit the activity of COL1A1 promoter by 50%
[8] = Homo sapiens, LX-2 cells, 0.5 mM, 24 h
[9] = 24 h, read-out: CC50, cytotoxic concentration required to inhibit the growth of LX-2 cells by 50%

IC50 (COL1A1 promoter; [7]) [µM]	IC50 (COL1A1 promoter; LX-2 cells, read-out: IC50 to inhibit the activity of COL1A1 promoter by 50%) [µM]	SMILES	inhibition at 500 µM (COL1A1 promoter; [8]) [%]	relative fluorescence unit (RFU) of COL1A1 promotor (COL1A1 promoter; LX-2 cells) [RFU]	SI, selectivity index (CC50/IC50) (LX-2 cells [1])	CC50 at 24 h [2, 9] [µM]	melting point [°C]	LPS-induced phosphorylation and baseline expression of IKKβ, NF-κB phosphorylation and expression [3]	IL-6 expression [3]	inhibition of inflammatory factors [3]	protein expression of COL1A1, fibronectin, α-SMA, and CTGF (LX-2 cells [4])	expression of fibro-genic genes (western blot) [5]	protein levels of fibronectin, COL1A1, and α-SMA following TGFβ1 stimulation ([5]; different concentrations)	mRNA expression of COL1A1, TGFβ1, and MMP2 [6]	inhibition at 500 µM (COL1A1 promoter; Homo sapiens, LX-2, 24 h) [%]	IC50 (COL1A1 promoter; Homo sapiens, LX-2, read-out: IC50 to inhibit the activity of COL1A1 promoter by 50%) [µM]	CC50 at 24 h ([2]; read-out: CC50 in LX-2 cells) [µM]
298 ± 51.7		COc1ccc(-c2cnc3c(O[C@@H]4CN[C@@H](C(=O)O)C4)cc(C)nn23)cc1OC [Compound 45, (2R,4S)-4-((3-(3,4-dimethoxyphenyl)-6-methylimidazo [1,2-b]pyridazin-8-yl)oxy)pyrrolidine-2-carboxylic acid]	69.6 ± 8.48	37918.9 ± 10579.6	2.12	632 ± 11.2											
327 ± 17.1		CC(C)(C)OC(=O)C[C@H](NC(=O)OCC1c2ccccc2-c2ccccc21)C(=O)NCCO [Compound 3, Tert-butyl (S)-3-((((9H-fluoren-9-yl)methoxy)carbonyl)amino)-4-((2-hydroxyethyl)amino)-4-oxobutanoate]	81.5 ± 5.62	23056.9 ± 7017.3	2.01	660 ± 24.6	93.2 to 95.6										
30	30.6 ± 0.3	COC(=O)[C@H]1C[C@H](Oc2cc(Cl)nn3c(-c4ccc(OC)c(OC)c4)cnc23)CN1C(=O)OC(C)(C)C [Compound 41, 1-(tert-butyl)-2-methyl-(2R,4S)-4-((6-chloro-3-(3,4-dimethoxyphenyl)imidazo [1,2-b]pyridazin-8-yl)oxy)pyrrolidine-1,2-dicarboxylate]	66.7 ± 1.96	41555.6 ± 2445.9	16.68	510 ± 51.5		dose-dependent reduction	significantly suppressed	superior inhibitory effects	significantly reducing; also recorded: potent inhibition	significantly suppressed	notably inhibited; also recorded: reduced the protein levels of fibronectin, COL1A1, and α-SMA in a dose-dependent manner	markedly decreased			
		C[C@H](N)C(=O)N[C@@H](CC(=O)O)C(=O)O [Compound 8a, L-alanyl-L-aspartic acid] (H-Ala-Asp-OH)		63265.3 ± 16582.4	13.16	13900		dose-dependent reduction	significantly suppressed	superior inhibitory effects	significantly reducing	no significant inhibitory effect			49.3 ± 13.3	1050 ± 111	13000

SMILES	IC50 (COL1A1 promoter; [7]) [µM]	IC50 (COL1A1 promoter; LX-2 cells, read-out: IC50 to inhibit the activity of COL1A1 promoter by 50%) [µM]	inhibition at 500 µM (COL1A1 promoter; [8]) [%]	relative fluorescence unit (RFU) of COL1A1 promotor (COL1A1 promoter; LX-2 cells) [RFU]	SI, selectivity index (CC50/IC50) (LX-2 cells [1])	CC50 at 24 h [2, 9] [µM]	melting point [°C]	LPS-induced phosphorylation and baseline expression of IKKβ, NF-κB phosphorylation and expression [3]	IL-6 expression [3]	inhibition of inflammatory factors [3]	protein expression of COL1A1, fibronectin, α-SMA, and CTGF (LX-2 cells [4])	expression of fibro-genic genes (western blot) [5]	protein levels of fibronectin, COL1A1, and α-SMA following TGFβ1 stimulation ([5]; different concentrations)	mRNA expression of COL1A1, TGFβ1, and MMP2 [6]	inhibition at 500 µM (COL1A1 promoter; Homo sapiens, LX-2, 24 h) [%]	IC50 (COL1A1 promoter; Homo sapiens, LX-2, read-out: IC50 to inhibit the activity of COL1A1 promoter by 50%) [µM]	CC50 at 24 h ([2]; read-out: CC50 in LX-2 cells) [µM]
CC[C@@H]1C2C[C@H](O)CC[C@]2(C)C2CC[C@@]3(C)C(CCC3[C@H](C)CCC(=O)N[C@@H](CC(=O)O)C(=O)O)C2[C@@H]1O (stereo partly drawn) [Compound 9, ((4R)-4-((3R,6R,7R,10S,13R)-6-ethyl-3,7-dihydroxy-10,13-dimethylhexadecahydro-1H-cyclopenta[a]phenanthren-17-yl)pentanoyl)-L-aspartic acid]	270 ± 47.9		97.4 ± 3.53	3188.3 ±4407.2	1.30	351 ± 19.4	108.2 to 110.6										
